Reference: patent publication US12623942B2, “Method for extracting salts and temperature- regenerated extracting composition” (ADIONICS, priority 2016, dated 2026)
Values after ≈ are worked out from the molar mass of the structure shown.

Key:
Solubility in water = format: physicochemical
Source text: The hydrophoby or the solubility in water of a compound may be measured by standard methods and, especially, by UV/visible spectroscopy.

[1] = Liquid-liquid extraction of mono-salt saline solution; settings: for Extraction rate at room temperature (RT), BaCl2 / Extraction rate at room temperature (RT), CaCl2 / Extraction rate at room temperature (RT), KCl / Extraction rate at room temperature (RT), LiCl / Extraction rate at room temperature (RT), MgCl2 / Extraction rate at room temperature (RT), NaCl / Extraction rate at room temperature (RT), SrCl2: 0.1M CEM + 3.52M ASM2 in CH2Cl2, initial salt 0.1 mol/L, Org./Water = 1, molar %
Source text: The extracting composition is obtained by solubilizing an amount of CEM and ASM in the selected fluidizing agent, dichloromethane CH2Cl2, dichlorobenzene or dichlorotoluene or any other fluidizing agent able to well solubilize the mixture CEM/ASM in order to obtain the searched final concentrations after solubilizing CEMs and ASMs in a minimum of 3 milliliters of fluidizing agent. If the selected fluidizing agent is also an ASM compound, so the selected ASM volume is at least 3 milliliters. The given concentrations of ASM2 and ASM9 are related to the added fluidizing agent volume and the concentrations of CEM are related to the added fluidizing agent+ASM volume. The extracting organic composition is then lightly heated so as to promote the solubilization of the organic compounds by means of a heat gun (temperature around 50 to 60° C.) for a few seconds (10 to 30 seconds) until a clear solution is obtained. The composition is thus left for 24 hours at room temperature so as to make sure that the obtained formulation is stable.
These sealed formulations are then orbitally stirred at 500 revolutions/minute for two hours after adding an equivalent volume of water which was distilled twice so as to allow a water saturation of the whole formulation and a pH control at the inlet and at the outlet (pH close to 7, or at least maintained after contact with the saturation water).
3 mL of the prepared extracting organic composition are then taken from the lower phase of the decanted diphasic mixture and transferred to a vial containing 3 mL of the water containing the one or more considered chloride salts (NaCl or others), then the vial is sealed and orbitally stirred (at 500 revolutions per minute) for 2 hours at room temperature (RT), that is to say between 20 and 25° C.
A verification is made to make sure that droplets in the range of 1-2 mm are really present during these stirrings in order to be sure that an equilibrium in the distribution of the considered chloride salt (NaCl or other) is achieved between both liquid phases at the end of stirring. The aspect of the organic and aqueous phases is clear and colorless or slightly turbid.
Once the 2-hour stirring is carried out, the stirring is stopped and the whole is left for decantation for about 10 minutes, at least until both phases are completely separated, at the temperature of the assay. Then, the upper aqueous phase is taken then stirred and diluted in order to analyze its salinity by a ion chromatography (a Metrohm™ device including a cation analyzing column and an anion analyzing column suitable for the ions and for the concentration of the salts which are searched for). Likewise, the chloride salt (NaCl or other) initial aqueous solution is also analyzed by this ion chromatography to determine its cation and chloride molar relative concentration before the extraction. All the extractions and analyses were duplicated.
The considered extracting composition comprises 0.1 mol/L of CEM1 and 3.52 mol/L of ASM2 in dichloromethane CH2Cl2, which was obtained as described above. The initial concentration of the considered salt in water, whether it is LiCl, NaCl, KCl, MgCl2, CaCl2, SrCl2 or BaCl2, is 0.1 mol/L.
After carrying out these 7 specific extractions (duplicated) of salts, the amounts of extracted cations in relative molar percentage before and after extraction at room temperature and at water/extracting formulation iso-volume are indicated in table I: […]

[2] = Complexing constant Log K in methanol at 25° C.; format: binding
Description: K is the complexing constant of a CEM and a […] cation in methanol, at 25° C., which is measured according to the standard method of isothermal calorimetric titration.

[3] = mono-salt solutions, 0.1M CEM + 3.52M ASM2 in CH2Cl2, RT

OCc1cccc(C(F)(F)F)c1 [ASM1, 3-(trifluoromethyl)benzyl alcohol] gave a Solubility in water (Solubility in water) of 32000 µM (≈ 5640 µg/mL).

Compound OCc1cc(C(F)(F)F)cc(C(F)(F)F)c1 [ASM2, [3,5-Bis(Trifluoromethyl)phenyl]methanol] has a Solubility in water (Solubility in water) of 2290 µM (≈ 559 µg/mL).

Work on OCc1cc(C(F)(F)C(F)(F)C(F)(F)C(F)(F)F)cc(C(F)(F)C(F)(F)C(F)(F)C(F)(F)F)c1 [ASM3] yielded a Solubility in water (Solubility in water) of 0.5 µM (≈ 0.272 µg/mL).

With OCc1cc(C(F)(F)F)c(C(F)(F)F)c(C(F)(F)F)c1 [ASM4] the Solubility in water (Solubility in water) was 390 µM (≈ 122 µg/mL).

With CC(O)c1cccc(C(F)(F)C(F)(F)C(F)(F)F)c1 (stereo not shown) [ASM5] the Solubility in water (Solubility in water) was 420 µM (≈ 122 µg/mL).

In the case of CCCC(O)c1cc(C(F)(F)F)cc(C(F)(F)F)c1 (stereo not shown) [ASM7], the Solubility in water (Solubility in water) is reported as 480 µM (≈ 137 µg/mL).

OC(c1cccc(C(F)(F)F)c1)c1cccc(C(F)(F)F)c1 [ASM8] gave a Solubility in water (Solubility in water) of 70 µM (≈ 22.4 µg/mL).

In the case of CCOC(=O)COc1c2cc(C(C)(C)C)cc1Cc1cc(C(C)(C)C)cc(c1OCC(=O)OCC)Cc1cc(C(C)(C)C)cc(c1OCC(=O)OCC)Cc1cc(C(C)(C)C)cc(c1OCC(=O)OCC)C2 [CEM10, 4-tert-Butylcalix[4]arene-tetraacetic acid tetraethyl ester], the “Extraction rate at room temperature (RT), BaCl2” value [1] is reported as 3.7%, the “Extraction rate at room temperature (RT), CaCl2” value [1] is reported as 4.7% and the “Extraction rate at room temperature (RT), KCl” value [1] is reported as 14.4%. The “Extraction rate at room temperature (RT), LiCl” value [1] was 5.5%, the “Extraction rate at room temperature (RT), MgCl2” value [1] was 5.1% and the “Extraction rate at room temperature (RT), NaCl” value [1] was 66.2%. The “Extraction rate at room temperature (RT), SrCl2” value [1] was 5.9%, the Na/Ca selectivity [1, 3] was 14 and the “Log K(Cs^+, MeOH, 25° C.)” value [2] was 2.7. The “Log K(K^+, MeOH, 25° C.)” value [2] was 2.4, the “Log K(Li^+, MeOH, 25° C.)” value [2] was 2.6 and the “Log K(Na^+, MeOH, 25° C.)” value [2] was 5.0. The “Log K(Rb^+, MeOH, 25° C.)” value [2] was 3.1.

For CCOC(=O)COc1c2cc(C(C)(C)C)cc1Cc1cc(C(C)(C)C)cc(c1OCC(=O)OCC)Cc1cc(C(C)(C)C)cc(c1OCC(=O)OCC)Cc1cc(C(C)(C)C)cc(c1OCC(=O)OCC)Cc1cc(C(C)(C)C)cc(c1OCC(=O)OCC)Cc1cc(C(C)(C)C)cc(c1OCC(=O)OCC)C2 [CEM12, 4-tert-Butylcalix[6]arene-hexaacetic acid hexaethyl ester], the “Extraction rate at room temperature (RT), BaCl2” value [1] was 11.8%, the “Extraction rate at room temperature (RT), CaCl2” value [1] was 5.5% and the “Extraction rate at room temperature (RT), KCl” value [1] was 55.7%. For the same compound, the “Extraction rate at room temperature (RT), LiCl” value [1] was 9.0%, the “Extraction rate at room temperature (RT), MgCl2” value [1] was 5.4% and the “Extraction rate at room temperature (RT), NaCl” value [1] was 29.6%. For the same compound, the “Extraction rate at room temperature (RT), SrCl2” value [1] was 4.6% and the K/Ca selectivity [1, 3] was 10.2.

For CC(C)(C)c1cc2c(OCC(=O)N3CCCC3)c(c1)Cc1cc(C(C)(C)C)cc(c1OCC(=O)N1CCCC1)Cc1cc(C(C)(C)C)cc(c1OCC(=O)N1CCCC1)Cc1cc(C(C)(C)C)cc(c1OCC(=O)N1CCCC1)C2 [CEM 4, 4-tert-butyl-Calix[4]arene tetrakis(N-pyrrolidinylacetamide)], the “Log K(Ba^++, MeOH, 25° C.)” value [2] was 6.8, the “Log K(Ca^++, MeOH, 25° C.)” value [2] was 7.8 and the “Log K(Cs^+, MeOH, 25° C.)” value [2] was 1.0. The “Log K(K^+, MeOH, 25° C.)” value [2] was 5.4, the “Log K(Li^+, MeOH, 25° C.)” value [2] was 3.0 and the “Log K(Mg^++, MeOH, 25° C.)” value [2] was 1.2. For the same compound, the “Log K(Na^+, MeOH, 25° C.)” value [2] was 7.2, the “Log K(Rb^+, MeOH, 25° C.)” value [2] was 3.0 and the “Log K(Sr^++, MeOH, 25° C.)” value [2] was 8.1.

With CCN(CC)C(=O)COc1c2cc(C(C)(C)C)cc1Cc1cc(C(C)(C)C)cc(c1OCC(=O)N(CC)CC)Cc1cc(C(C)(C)C)cc(c1OCC(=O)N(CC)CC)Cc1cc(C(C)(C)C)cc(c1OCC(=O)N(CC)CC)Cc1cc(C(C)(C)C)cc(c1OCC(=O)N(CC)CC)Cc1cc(C(C)(C)C)cc(c1OCC(=O)N(CC)CC)Cc1cc(C(C)(C)C)cc(c1OCC(=O)N(CC)CC)Cc1cc(C(C)(C)C)cc(c1OCC(=O)N(CC)CC)C2 [CEM 9, 4-tert-butyl-Calix[8]arene octakis(N,N-diethylacetamide)] the “Log K(Ca^++, MeOH, 25° C.)” value [2] was 7.2.

In the case of CCOC(=O)COc1c2cc(C(C)(C)C)cc1Cc1cc(C(C)(C)C)cc(c1OCC(=O)OCC)Cc1cc(C(C)(C)C)cc(c1OCC(=O)OCC)Cc1cc(C(C)(C)C)cc(c1OCC(=O)OCC)Cc1cc(C(C)(C)C)cc(c1OCC(=O)OCC)C2 [CEM 11, 4-tert-Butylcalix[5]arene-pentaacetic acid pentaethyl ester], the “Log K(Cs^+, MeOH, 25° C.)” value [2] is reported as 5.5, the “Log K(K^+, MeOH, 25° C.)” value [2] is reported as 5.3 and the “Log K(Li^+, MeOH, 25° C.)” value [2] is reported as 1.0. For the same compound, the “Log K(Na^+, MeOH, 25° C.)” value [2] was 4.4 and the “Log K(Rb^+, MeOH, 25° C.)” value [2] was 5.6.
